How the values were obtained:
naturally aged mice = assay: Anti-aging evaluation in naturally aged mice, Example 31, Table 55; type: in vivo, mouse; conditions: for Femur Ctsk mRNA / Kidney Agtr1a mRNA / Liver IL6 mRNA / Liver MMP3 mRNA / Liver p16 mRNA / Open Field Test Time in Center: untreated = 100%; for Heart Sur2a mRNA / Joint Col2a1 mRNA / Skin Col1a1 mRNA / Skin SDF1 mRNA: untreated = 1.0; for Muscle Mass: untreated 0.64 g; for Fat Mass: untreated 0.82 g; for Cataract incidence: untreated 83%;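 as to all read-outs here: Vehicle-dosed control mice received solution alone at matching volume, values compare test-compound-treated aged mice against that control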
[1] = tested on: bleomycin-induced pulmonary fibrosis mice; assay: Bleomycin-induced pulmonary fibrosis mice, Example 31, Table 56; type: in vivo, mouse; conditions: untreated = 100%
Method: (§1) The control group was administered only the solution in the same volume. After the end of drug administration, the method described in each example below was performed. Liver, kidney, skin, knee joint, heart, and femur tissues were collected from mice in which natural aging was induced in the same manner as in Examples 7-2 and 7-6 of WO2023-085787 A1. Lung tissues were collected from mice in which pulmonary fibrosis was induced using the same method as in Example 24-1. Liver tissues were collected from mice in which hepatic fibrosis was induced using the same method as in Example 26, and total RNA was extracted. qRT-PCR was performed and analyzed using the synthesized cDNA. […] The mRNA amounts of p16, MMP3, and IL6 after natural aging was induced were calculated as 100% and compared with the mRNA amounts of p16, MMP3, and IL6 after treatment with the test compound. In addition, an open field test for the analysis of aging-related frailty, agtr1a mRNA analysis for kidney damage and disease evaluation, col1a1 and SDF1 mRNA analysis for skin aging evaluation such as wrinkles/loss of elasticity/hyperpigmentation, col2a1 mRNA analysis for evaluating joint aging such as osteoarthritis, sur2a mRNA analysis for evaluating cardiac aging such as decreased cardiac load resistance, ctsk mRNA analysis for evaluating bone diseases due to aging such as osteoporosis, muscle tissue weight for analyzing sarcopenia, fat tissue weight for analyzing lipoatrophy, and cataract incidence analysis were performed in mice. For cataract incidence analysis, the drug was administered twice a week under the conditions specified above, and biweekly examinations were conducted until death.
The table below quantitatively presents the evaluation results for each item in mice with bleomycin-induced pulmonary fibrosis, untreated and treated with the test compound.

[2] = tested on: carbon tetrachloride-induced liver fibrosis mice; assay: Carbon tetrachloride-induced liver fibrosis mice, Example 31, Table 57; type: in vivo, mouse; conditions: CCl4-induced liver fibrosis mice, untreated = 100%
Method: as §1

senescent cells = assay: Viability of senescent cells (CellTiter-Glo), Example 17, Table 13; conditions: Homo sapiens, read-out: Survival (%)
Method: Cells induced to undergo senescence by doxorubicin treatment were treated with test compound at designated concentrations and measured using the CellTiter-Glo Luminescent Cell Viability Assay (Promega).

senescent A549 cells = assay: Viability of senescent A549 cells (CellTiter-Glo), Example 18, Table 15; conditions: Homo sapiens, A549, read-out: Survival (%)
Method: Senescence-induced cancer cells treated with doxorubicin were treated with the test compound at designated concentrations, and cell viability was measured using the CellTiter-Glo Luminescent Cell Viability Assay (Promega).

Row | SMILES | Femur Ctsk mRNA (naturally aged mice) [%] | Heart Sur2a mRNA (naturally aged mice) [fold] | Joint Col2a1 mRNA (naturally aged mice) [fold] | Kidney Agtr1a mRNA (naturally aged mice) [%] | Liver IL6 mRNA (naturally aged mice) [%] | Liver MMP3 mRNA (naturally aged mice) [%] | Liver p16 mRNA (naturally aged mice) [%] | Open Field Test Time in Center (naturally aged mice) [%] | Skin Col1a1 mRNA (naturally aged mice) [Fold] | Skin SDF1 mRNA (naturally aged mice) [fold] | Muscle Mass (naturally aged mice) [g] | Fat Mass (naturally aged mice) [g] | Cataract incidence (naturally aged mice) [%] | Lung p16 mRNA [1] | Col1a1 mRNA [1] | Liver p16 mRNA [2] | Col1a1 mRNA [2] | viability at 1.1 µM (senescent cells) [%] | viability at 1.1 µM (senescent A549 cells) [%] | viability at 10 µM (senescent A549 cells) [%] | also measured
1 | O=C1C2CCN(CC2)C1(CO)COCc1ccccc1 (stereo not shown) [LX-5711] | 62 | 2.3 | 2.3 | 63 | 48 | 61 | 65 | 191 | 1.5 | 1.8 | 0.68 | 0.93 | 72 | 70 (±3.8) % | 71 (±4.0) % | 63 (±4.3) % | 74 (±3.0) % | 95.1 | 89 | 52.5 | viability at 10 µM (senescent cells): 63.7%; viability at 30 µM (senescent cells): 20.6%; viability at 30 µM (senescent A549 cells): 11.9%
2 | [2H]C([2H])([2H])OCC1(CO)C(=O)C2CCN1CC2 (stereo not shown) [LX-5721] | 63 | 2.7 | 2.0 | 59 | 54 | 72 | 41 | 218 | 1.7 | 1.7 | 0.68 | 0.97 | 71 | 65 (±5.6) % | 78 (±4.7) % | 52 (±9.6) % | 80 (±9.3) % | 98.5 | 106 | 17.8 | viability at 10 µM (senescent cells): 45.5%; viability at 30 µM (senescent cells): 13.4%
3 | [2H]C12CCN(CC1)C(CO)(COC)C2=O (stereo not shown) [LX-5722] | 59 | 2.4 | 2.1 | 52 | 73 | 63 | 46 | 222 | 1.8 | 1.6 | 0.70 | 1.03 | 69 | 73 (±5.5) % | 78 (±7.2) % | 69 (±6.2) % | 76 (±6.4) % | 91.5 | 99 | 4.1 | viability at 10 µM (senescent cells): 34.1%; viability at 30 µM (senescent cells): 1.8%
4 | CN(NC(=O)CC(=O)NN(C)C(=S)c1ccccc1)C(=S)c1ccccc1 [LX-6501, Elesclomol] | 64 | 1.8 | 2.7 | 49 | 46 | 56 | 38 | 214 | 1.9 | 2.2 | 0.71 | 0.89 | 48 | 68 (±4.4) % | 75 (±5.3) % | 34 (±3.0) % | 75 (±2.5) % | 94.5 | 97 | 62.4 | viability at 10 µM (senescent cells): 71.5%; viability at 30 µM (senescent cells): 7.8%; viability at 30 µM (senescent A549 cells): 13%
5 | NC(=O)c1ncn([C@@H]2O[C@H](CO)[C@@H](O)[C@H]2O)n1 [LX-6537, Ribavirin] | 67 | 1.6 | 2.2 | 73 | 48 | 67 | 74 | 177 | 1.9 | 1.4 | 0.68 | 0.85 | 72 | 64 (±3.2) % | 67 (±3.9) % | 77 (±5.7) % | 81 (±4.1) % | 90.9 | 102 | 66.8 | viability at 10 µM (senescent cells): 67.3%; viability at 30 µM (senescent cells): 12.2%; viability at 30 µM (senescent A549 cells): 2.4%
6 | C=C1CC[C@@H]2[C@](C)(CO)[C@H](O)CC[C@@]2(C)[C@@H]1C/C=C1/C(=O)OC[C@H]1O [LX-6800, Andrographolide] | 58 | 2.3 | 2.4 | 78 | 56 | 77 | 73 | 154 | 2.1 | 2.0 | 0.70 | 0.91 | 75 | 78 (±3.8) % | 62 (±3.6) % | 80 (±4.9) % | 76 (±2.7) % | 81.6 | 80.9 | 70.9 | viability at 10 µM (senescent cells): 56.5%; viability at 30 µM (senescent cells): 2.2%; viability at 30 µM (senescent A549 cells): 43.8%; viability at 90 µM (senescent A549 cells): 17%
7 | C[S+]([O-])CCCCN=C=S (stereo not shown) [LX-7103, Sulforaphane] | 65 | 2.1 | 2.3 | 67 | 67 | 79 | 65 | 218 | 2.6 | 2.6 | 0.67 | 0.96 | 69 | 65 (±2.1) % | 66 (±4.5) % | 70 (±2.2) % | 68 (±2.9) % | 84.3 | 102 | 37.6 | viability at 10 µM (senescent cells): 7.9%; viability at 30 µM (senescent A549 cells): 4.1%
8 | C[C@@H](Nc1nc(N[C@H](C)C(F)(F)F)nc(-c2cccc(Cl)n2)n1)C(F)(F)F [LX-8726, Vorasidenib] | 25 | 2.9 | 2.4 | 48 | 25 | 64 | 61 | 276 | 2.8 | 2.7 | 0.81 | 1.20 | 43 | 42 (±2.9) % | 58 (±5.3) % | 36 (±4.3) % | 48 (±4.3) % | 52.3 | 71.7 | 17.5 | 
9 | Cn1cc(C[C@@H](N)C(=O)O)c2ccccc21 [LX-8801, Indoximod] | 35 | 2.9 | 1.7 | 72 | 33 | 63 | 54 | 205 | 2.1 | 2.6 | 0.69 | 0.94 | 59 | 44 (±3.0) % | 67 (±4.5) % | 49 (±4.3) % | 53 (±3.5) % | 69.1 | 62.5 | 8.4 | viability at 10 µM (senescent cells): 1.2%
10 | C[C@@H](C(=O)Nc1ccc(Cl)cc1)[C@H]1CC[C@@H](c2ccnc3ccc(F)cc32)CC1 [LX-8805, Linrodostat] | 58 | 2.6 | 2.6 | 55 | 25 | 67 | 47 | 217 | 1.7 | 1.9 | 0.72 | 0.87 | 68 | 40 (±2.1) % | 70 (±4.6) % | 60 (±3.9) % | 36 (±3.4) % | 99.1 | 103 | 58.3 | viability at 10 µM (senescent cells): 42.1%; viability at 30 µM (senescent cells): 21.8%; viability at 30 µM (senescent A549 cells): 32.8%
